Experimental data reported in paper PMC11555526, “Development of 2-Aminoadenine-Based Proteolysis-Targeting Chimeras (PROTACs) as Novel Potent Degraders of Monopolar Spindle 1 and Aurora Kinases” (ACS Pharmacology & Translational Science, 2024).

Molecular target: T1, AURKA (Homo sapiens, UniProt O14965)
T1 construct: endogenous in cells; host or cells: MV4-11 HiBiT-TTK cells (AURKA not transduced)
T1 sequence (O14965 1-403): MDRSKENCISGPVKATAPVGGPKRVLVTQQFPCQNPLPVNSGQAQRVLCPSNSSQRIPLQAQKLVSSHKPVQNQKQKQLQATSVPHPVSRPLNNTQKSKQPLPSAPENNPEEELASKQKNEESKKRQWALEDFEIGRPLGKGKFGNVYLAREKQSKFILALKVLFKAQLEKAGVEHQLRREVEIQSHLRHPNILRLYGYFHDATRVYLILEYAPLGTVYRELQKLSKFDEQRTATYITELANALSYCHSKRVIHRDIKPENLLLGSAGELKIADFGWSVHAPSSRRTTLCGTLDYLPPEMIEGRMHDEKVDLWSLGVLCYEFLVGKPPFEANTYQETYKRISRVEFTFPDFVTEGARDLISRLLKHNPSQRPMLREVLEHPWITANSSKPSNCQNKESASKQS
Experiment: Immunoblot of AURKA in HiBiT-TTK cells
Format: cell-based
Conditions: 6 h
Method: The cells were treated with compounds or vehicle for indicated time points and lysed in RIPA lysis buffer (50 mM HEPES pH 7.9, 140 mM NaCl, 1 mM EDTA, 1% Triton X-100, 0.1% SDS, 0.1% sodium deoxycholate) containing protease and phosphatase inhibitors (Sigma) for 20 min at 4 °C. Cell lysates were cleared by centrifugation, and protein concentration was determined with bicinchoninic acid assay. Equal amounts of protein per sample were separated by Bis-Tris-PAGE and transferred to PVDF membranes (Millipore). The membranes were blocked with 5% (w/v) nonfat dry milk in TBS-T [20 mM Tris–HCl, pH 7.5, 150 mM NaCl, 0.1% (v/v) Tween-20] for 1 h at room temperature and incubated with primary antibody at 4 °C overnight. Visualization was carried out using horseradish peroxidase (HRP)-labeled secondary antibodies and detected using a chemiluminescent HRP substrate (Millipore) in LAS3000 or LAS4000 mini (Fujifilm). Vinculin, GAPDH, or B-actin were used as a loading control. […] The signal was quantified using ImageJ or Image Studio Lite against the corresponding loading controls. […]
Figure S2: Cellular degradation studies of SF1-based compounds. […] Indicated MV4-11 HiBiT cells were treated with different concentrations of 15 (B), and 28 (C) for 6 h, lysed, complemented with the large luciferase fragment (largeBiT), and luciferase 27 (A), activity was measured. […]

Cc1ncsc1-c1ccc(CNC(=O)[C@@H]2C[C@@H](O)CN2C(=O)[C@@H](NC(=O)COCCOCC(=O)N2CCN(c3ccc(Nc4nc(Nc5ccccc5S(=O)(=O)C(C)C)c5nc[nH]c5n4)cc3)CC2)C(C)(C)C)cc1 [Compound 49]
relative AURKA level (immunoblot quantification, vehicle = 1.00) (0.16 µM): 1.00
relative AURKA level (immunoblot quantification, vehicle = 1.00) (10 µM): 0.87
